Laboratory results: ChEMBL document CHEMBL1159257, “Methyl ethers of podophyllotoxin-related cyclolignans” (J Nat Prod, 1995)

Key:
Format in all cases: functional, cell-based
P388 = assay: Cytotoxicity against mouse P388 cells
HT-29 = assay: Cytotoxicity against human HT-29 cells
A549 = assay: Cytotoxicity against human A549 cells

Structure (SMILES) | IC50 (P388) [µM] | IC50 (HT-29) [µM] | IC50 (A549) [µM]
COc1cc([C@@H]2c3cc4c(cc3[C@@H](OC)[C@@H](CO)[C@@H]2CO)OCO4)cc(OC)c1OC | 11.6 | 11.6 | 11.6
COc1cc([C@@H]2c3cc4c(cc3[C@@H](OC)[C@@H](COC(C)=O)[C@H]2COC(C)=O)OCO4)cc(OC)c1OC | 9.7 | 9.7 | 9.7
COc1cc([C@@H]2c3cc4c(cc3[C@H](OC)[C@@H](COC(C)=O)[C@H]2COC(C)=O)OCO4)cc(OC)c1OC | 19.4 | 19.4 | > 38.8
COc1cc([C@@H]2c3cc4c(cc3[C@H](OC)[C@H]3COC(=O)[C@@H]23)OCO4)cc(OC)c1OC | 0.12 | 0.23 | 0.12
COc1cc([C@@H]2c3cc4c(cc3[C@@H](OC)[C@@H](COC(C)=O)[C@@H]2COC(C)=O)OCO4)cc(OC)c1OC | 9.7 | 9.7 | 9.7
COc1cc([C@@H]2c3cc4c(cc3[C@@H](OC)[C@@H](CO)[C@H]2CO)OCO4)cc(OC)c1OC | 11.6 | 11.6 | 11.6
COc1cc([C@@H]2c3cc4c(cc3[C@H](OC)[C@@H](CO)[C@H]2CO)OCO4)cc(OC)c1OC | 23.2 | 23.2 | 46.3
COc1cc([C@@H]2c3cc4c(cc3[C@@H](OC)[C@H]3COC(=O)[C@@H]23)OCO4)cc(OC)c1OC | 0.1 | 0.06 | 0.13
COc1cc([C@@H]2c3cc4c(cc3[C@@H](Cl)[C@H]3COC(=O)[C@H]23)OCO4)cc(OC)c1OC | 0.6 | 1.2 | 0.6
COc1cc([C@@H]2c3cc4c(cc3[C@H](OC)[C@H]3COC(=O)[C@H]23)OCO4)cc(OC)c1OC | 0.06 | 0.06 | 0.06
COc1cc([C@@H]2c3cc4c(cc3C=C3COC(=O)[C@H]32)OCO4)cc(OC)c1OC | 0.013 | 0.025 | 0.025
COc1cc([C@@H]2c3cc4c(cc3[C@@H](OC)[C@H]3COC(=O)[C@H]23)OCO4)cc(OC)c1OC | 0.06 | 1.2 | 0.06
COc1cc([C@@H]2c3cc4c(cc3[C@H](OC)[C@@H](COC(C)=O)[C@@H]2COC(C)=O)OCO4)cc(OC)c1OC | 9.7 | 9.7 | 9.7
COc1cc([C@@H]2c3cc4c(cc3[C@H](O)[C@H]3COC(=O)[C@@H]23)OCO4)cc(OC)c1OC [AXL-1717] | 6 | 6 | 6
COc1cc([C@@H]2c3cc4c(cc3[C@@H](O)[C@H]3COC(=O)[C@H]23)OCO4)cc(OC)c1OC [EPIPODOPHYLLOTOXIN] | 0.06 | 0.06 | 0.06
COc1cc([C@@H]2c3cc4c(cc3[C@H](O)[C@H]3COC(=O)[C@H]23)OCO4)cc(OC)c1OC [PODOFILOX] | – | 0.0029 | –
